Reference: PubChem BioAssay AID2061108 (Research group of Professor Matthew Todd, School of …, 2025)
Active and inactive are the calls of the source. No rule for the calls is given here.

Tests used:
Test in all cases: antibacterial and antifungal growth inhibition panel, profiling panel, Idler compounds, first plate, PMBN-permeabilized strains (AID 2061108)
Parameters in all cases: haemolysis: dose or concentration left out as unconfirmed
[1] = tested on: C. albicans NCPF 3281 growth inhibition, 100 uM; details: S. aureus ATCC 9144 growth inhibition; measured here: C. albicans NCPF 3281; at 100 µM; stronger effect = higher value
[2] = tested on: E. coli NCTC 12923 + PMBN growth inhibition, 100 uM; details: S. aureus ATCC 9144 growth inhibition; measured here: E. coli plus PMBN; at 100 µM; stronger effect = higher value
[3] = tested on: E. coli NCTC 12923 growth inhibition, 100 uM; details: E. coli NCTC 12923 growth inhibition, 100 µM; stronger effect = higher value
[4] = tested on: M. abscessus growth inhibition, 10 uM; details: S. aureus ATCC 9144 growth inhibition; measured here: M. abscessus; at 10 µM
[5] = tested on: M. avium growth inhibition, 10 uM; details: M. avium growth inhibition, 10 µM
[6] = tested on: red blood cell haemolysis; details: stronger effect = higher value; dose or concentration not given here
[7] = tested on: S. aureus ATCC 9144 growth inhibition, 100 uM; details: S. aureus ATCC 9144 growth inhibition; at 100 µM; stronger effect = higher value
[8] = tested on: A. baumannii ATCC 17978 + PMBN growth inhibition, 100 uM; details: A. baumannii plus PMBN growth inhibition, 100 µM; stronger effect = higher value
[9] = tested on: A. baumannii ATCC 17978 growth inhibition, 100 uM; details: S. aureus ATCC 9144 growth inhibition; measured here: A. baumannii ATCC 17978; at 100 µM; stronger effect = higher value

SMILES	inhibition [1] [%]	inhibition [2] [%]	inhibition [3] [%]	inhibition [4] [%]	inhibition [5] [%]	haemolysis [6] [%]	inhibition [7]	inhibition [8] [%]	inhibition [9] [%]
O=S(=O)(F)c1ncc(Cl)cc1Br	-41.4	-23.7	-27.7	-0.925	0.219	0.564	-14.2% (inactive)	5.94	0.595
CCCOc1cc(S(=O)(=O)n2cccn2)ccc1Br	-62.6	-8.29	-38.1	-0.42	-1.53	0.858	-33.2% (inactive)	18.4	-7.35
N#CC1(c2cccc(-c3cccc4c3CCOC4C(=O)O)c2)CC1 (configuration not stated)	-60.5	-11.3	-6.62	0.107	-1.43	0.0202	-2.28% (inactive)	20.9	-4.34
Nc1ncnc2cc(-c3cccc(S(N)(=O)=O)c3)sc12	-67.9	91.6	1.22	0.72	50.5	-0.345	27.3%	-11.6	-9.52
CCC(C)C(N)C(=O)NS(=O)(=O)c1cccc(-c2cc3ncnc(N)c3s2)c1 (configuration not stated)	-21.7	-27.4	-29.6	-0.383	10.3	0.094	-39.6% (inactive)	-15.9	-17.8
Nc1ncnc2cc(-c3cccc(S(=O)(=O)NC(=O)C4CCCN4)c3)sc12 (configuration not stated)	-16.7	-40.7	-67.2	-0.89	5.56	0.251	48.7% (inactive)	-10.6	-13
O=C(N/N=C/c1cnc(C(F)(F)F)nc1)c1ccncc1	17	11.2	-2.16	0.125	1.52	0.15	16.7% (inactive)	21.6	10.4
Nc1ncc(/C=N/NC(=O)c2ccncc2)cn1	3.92	-2.1	-0.946	-0.71	0.0378	-0.164	19.2% (inactive)	11.3	-1.43
COC(=O)c1ccc(C2CN(c3ccnc(S(=O)(=O)F)c3)C2)nc1	-28.7	11.4	1.62	-1.03	0.0988	-0.16	16.7% (inactive)	22.5	0.357
COc1cccc(C(=O)NCCOCc2cccc(N)c2)c1	-63.9	4.39	-10.5	-0.253	2.24	0.269	13.7% (inactive)	23.9	-1.45
Nc1ncnc2cc(-c3cccc(S(=O)(=O)NC(=O)C(N)CC(=O)O)c3)sc12 (configuration not stated)	-64.6	8.15	0.676	-1.16	11.9	-0.194	15.7% (inactive)	9.86	-7.14
Oc1ccc(CN2CCN(c3ccccc3F)CC2)c2cccnc12	95.2	6.46	-2.43	0.148	-0.052	1.25	6.49%	18.1	14.6
O=C(N1CCCCC1)N1CCCCC1Cc1ccccc1 (configuration not stated)	-79.6	18.1	-3.65	-0.54	0.89	-0.191	7% (inactive)	16.8	-2.26
Cc1ccc(CN2C(=O)NC3(CCN(C(=O)C(C)Oc4ccccc4)CC3)C2=O)cc1 (configuration not stated)	-57.6	22.5	-2.03	-1.03	-0.615	-0.00857	8.83% (inactive)	22.5	-7.26
CCOc1ccc(-c2cc(=O)n(CC(=O)N3CCC(Cc4ccccc4)CC3)cn2)cc1	-40.2	4.32	-16.4	-1.03	0.214	2.13	5.33% (inactive)	11	-13.5
CC(C)c1conc1CNc1ccnc(S(=O)(=O)F)c1	11.6	-0.37	-1.22	-1.22	0.196	-0.292	16.8% (inactive)	13	-0.119
CC(Nc1ccc2oc(=O)[nH]c2c1)C(=O)Nc1ccccc1C#N (configuration not stated)	28	-6.79	-4.73	-1.22	0.0692	0.275	8.83% (inactive)	14.5	-0.833
O=S(=O)(Nc1ccc(Oc2ccccc2)cc1)c1cccc(C(F)(F)F)c1	25.3	90	-5.41	-0.452	0.528	1.23	81.9%	67.9	59.2
N#Cc1c(Cl)nc2ccccc2c1C(F)(F)F	-47.1	-1.22	-10	0.0452	0.667	0.129	10% (inactive)	31.1	3.86
COc1ccc(/C=C(\C#N)S(=O)(=O)c2ccccc2)cc1OC	-60.8	3.58	-0.135	-0.905	-0.352	2.6	16.3% (inactive)	12.6	0.595
CCOc1ccc2ncc(C#N)c(N3CCC(C(=O)NCc4ccccc4F)CC3)c2c1	-38.3	-24	-44.6	-0.367	-1.25	0.211	-21.2% (inactive)	1	-5.66
N#Cc1c(N2C[C@@H](CC(N)=O)[C@H](O)C2)nc2ccccc2c1C(F)(F)F	-24.4	11.6	0.811	-0.687	0.858	0.173	9.67% (inactive)	28.3	-4.88
CC(C)C(N)C(=O)NS(=O)(=O)c1cccc(-c2cc3ncnc(N)c3s2)c1 (configuration not stated)	-123	-17.2	-28.5	-0.361	16.2	0.218	-22.3% (inactive)	-10.9	-15.1
COC(COc1cncc2nnc(-c3ccc(OC(F)F)cc3)n12)c1ccccc1 (configuration not stated)	-17.3	-28.1	-38.8	-0.536	-0.713	-0.0885	-22.8% (inactive)	-15.5	-16.4
Cn1nc(NC(=O)Nc2ccc(Cl)cc2)cc1C(C)(C)C	-94	-30.4	-25	-0.422	0.567	0.275	-14.7% (inactive)	-3	-22
COc1ccc(Nc2nc(-c3ccoc3)cs2)c(C)c1	-127	-20.1	-15	-1.05	0.988	0.164	-12.5% (inactive)	16.4	-13.9
Cc1ccc(C)c(N2CCN(C(=O)C3CCN(c4ncnc5c4sc4ncccc45)CC3)CC2)c1	24.6	0.988	9.19	-1.18	9.54	0.267	6.17% (inactive)	5.07	-3.57
O=C(CSc1nc(=O)[nH]c2c1CCC2)c1ccc(Cl)cc1	-110	-20	-22	-0.381	0.488	0.151	-14.2% (inactive)	10.9	0
